Data taken from patent US20060211710A1, “Substituted aryl 1,4-pyrazine derivatives” (Pfizer Inc, priority 2005, published 2006).

Target: T1, CRF1 receptor (Rattus norvegicus, UniProt P35353)
T1 construct: from tissue; host or cells: rat frontal cortex membranes
T1 sequence (P35353 24-415): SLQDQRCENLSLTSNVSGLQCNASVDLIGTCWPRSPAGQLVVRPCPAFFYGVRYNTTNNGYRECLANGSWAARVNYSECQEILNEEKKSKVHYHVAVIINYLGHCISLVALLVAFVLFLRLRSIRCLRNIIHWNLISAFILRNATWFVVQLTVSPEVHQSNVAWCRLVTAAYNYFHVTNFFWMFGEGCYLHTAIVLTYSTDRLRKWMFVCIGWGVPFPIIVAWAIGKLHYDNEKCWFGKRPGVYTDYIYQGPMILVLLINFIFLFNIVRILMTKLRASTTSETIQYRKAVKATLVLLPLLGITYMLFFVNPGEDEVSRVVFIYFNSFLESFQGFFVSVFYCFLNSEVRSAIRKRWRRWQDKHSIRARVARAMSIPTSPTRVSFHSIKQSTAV
Experiment: CRF1 Receptor Binding Assay (rat brain membranes, 125I-ovine-CRF)
Conditions: read-out: Ki, the binding constant to the CRF1 receptor
Description: The following is a description of the isolation of rat brain membranes for use in the standard binding assay as well as a description of the binding assay itself. It is based on a modified protocol described by De Souza (De Souza, 1987).
To prepare brain membranes for binding assays, rat frontal cortex is homogenized in 10 mL of ice cold tissue buffer (50 mM HEPES buffer pH 7.0, containing 10 mM MgCl2, 2 mM EGTA, 1 μg/ml aprotinin, 1 μg/ml leupeptin and 1 μg/ml pepstatin). The homogenate is centrifuged at 48,000×g for 10 min. and the resulting pellet rehomogenized in 10 mL of tissue buffer. Following an additional centrifugation at 48,000×g for 10 min., the pellet is resuspended to a protein concentration of 300 μg/mL.
Binding assays are performed in 96 well plates at a final volume of 300 μL. The assays are initiated by the addition of 150 μL membrane suspension to 150 μL of assay buffer containing ^125I-ovine-CRF (final concentration 150 pM) and various concentrations of inhibitors. […] Filters are assessed for radioactivity in a Packard TopCount. Nonspecific binding is determined in the presence of excess (10 μM) α-helical CRF. […]
IC50 values are calculated using standard methods known in the art, such as with the non-linear curve fitting program RS/1 (BBN Software Products Corp., Cambridge, Mass.).

| Ki [µM] | Compound |
| --- | --- |
| 0.019 | CCc1nc(-c2ccc(N(C)C)nc2C)c(CC)nc1N[C@@H]1c2ccccc2C[C@@H]1OC(C)=O [Example 1, (1R,2S)Acetic acid 1-[5-(6-dimethylamino-2-methyl-pyridin-3-yl)-3,6-diethyl-pyrazin-2-ylamino]-indan-2-yl ester] |
| 0.013 | CCO[C@H]1Cc2ccccc2[C@H]1Nc1nc(CC)c(-c2ccc(N(C)C)nc2C)nc1CC [Example 3, (1R,2S)[5-(6-Dimethylamino-2-methyl-pyridin-3-yl)-3,6-diethyl-pyrazin-2-yl]-(2-ethoxy-indan-1-yl)-amine] |
